Measurements reported in ChEMBL document CHEMBL3885861, “Open TG-GATES”.

Species on record: Rattus norvegicus
Experiment: Open TG-GATES - Regimen: Daily Repeat
Format: toxicity, organism-based, Sprague-Dawley
Set-up: regimen Daily Repeat, gender Male, age 6 weeks
Settings: in vivo, po, 250 mg/kg, route gavage, dose level High; for APTT / Bas / Eos / Fbg / Hb / Ht / Lym / MCH / MCHC / MCV / Mono / Neu / PT / Plat / RBC / Ret / WBC: tissue Blood; for KIDNEY_L / KIDNEY_R / KIDNEY_TOTAL: tissue Kidney; for LIVER: tissue Liver; for A/G / ALP / ALT / AST / BUN / CRE / Ca / Cl / DBIL / GLC / IP / K / LDH / Na / PL / RALB / TBIL / TC / TG / TP / gamma-GTP: tissue Plasma

What does the source list for `CCSCC[C@H](N)C(=O)O` [ETHIONINE]?
TERMINAL_BW (72 h, time 3 day): 209.1 g; APTT (72 h, time 3 day): 27.3 s; Bas (72 h, time 3 day): 0%; Eos (72 h, time 3 day): 1%; Fbg (72 h, time 3 day): 204.2 mg/dL; Hb (72 h, time 3 day): 15.1 g/dL; Ht (72 h, time 3 day): 43.9%; Lym (72 h, time 3 day): 87%; MCH (72 h, time 3 day): 21.5 pg; MCHC (72 h, time 3 day): 34.3%; MCV (72 h, time 3 day): 62.9 fL; Mono (72 h, time 3 day): 2.4%; Neu (72 h, time 3 day): 8.8%; PT (72 h, time 3 day): 16.2 s; Plat (72 h, time 3 day): 114.9 x10_4/uL; RBC (72 h, time 3 day): 698.8 x10_4/ul; Ret (72 h, time 3 day): 4%; WBC (72 h, time 3 day): 108.9 x10_2/uL; KIDNEY_L (72 h, time 3 day): 0.9 g; KIDNEY_R (72 h, time 3 day): 0.9 g; KIDNEY_TOTAL (72 h, time 3 day): 1.9 g; LIVER (72 h, time 3 day): 8.7 g; A/G (72 h, time 3 day): 1.9; ALP (72 h, time 3 day): 1059.2 IU/L; ALT (72 h, time 3 day): 42 IU/L; AST (72 h, time 3 day): 73.2 IU/L; BUN (72 h, time 3 day): 15.8 mg/dL; CRE (72 h, time 3 day): 0.4 mg/dL; Ca (72 h, time 3 day): 10.4 mg/dL; Cl (72 h, time 3 day): 102 meq/L; DBIL (72 h, time 3 day): 0.09 mg/dL; GLC (72 h, time 3 day): 183.8 mg/dL; IP (72 h, time 3 day): 8.3 mg/dL; K (72 h, time 3 day): 3.8 meq/L; LDH (72 h, time 3 day): 236.4 IU/L; Na (72 h, time 3 day): 140 meq/L; PL (72 h, time 3 day): 94 mg/dL; RALB (72 h, time 3 day): 3.5 g/dL; TBIL (72 h, time 3 day): 0.2 mg/dL; TC (72 h, time 3 day): 36.6 mg/dL; TG (72 h, time 3 day): 40.4 mg/dL; TP (72 h, time 3 day): 5.5 g/dL; gamma-GTP (72 h, time 3 day): 0.8 IU/L; TERMINAL_BW ([…], time 7 day): 226 g; TERMINAL_BW ([…], time 14 day): 268.3 g; TERMINAL_BW ([…], time 28 day): 314.2 g; APTT ([…], time 7 day): 28 s; Bas ([…], time 7 day): 0%; Eos ([…], time 7 day): 0.4%; Fbg ([…], time 7 day): 210.4 mg/dL; Hb ([…], time 7 day): 15.1 g/dL; Ht ([…], time 7 day): 44.3%; Lym ([…], time 7 day): 83.4%; MCH ([…], time 7 day): 20.9 pg; MCHC ([…], time 7 day): 34%; MCV ([…], time 7 day): 61.6 fL; Mono ([…], time 7 day): 2.2%; Neu ([…], time 7 day): 13.6%; PT ([…], time 7 day): 15.5 s; Plat ([…], time 7 day): 87.8 x10_4/uL; RBC ([…], time 7 day): 720.4 x10_4/ul; Ret ([…], time 7 day): 1%; WBC ([…], time 7 day): 122.2 x10_2/uL; APTT ([…], time 14 day): 26 s; Bas ([…], time 14 day): 0%; Eos ([…], time 14 day): 0.6%; Fbg ([…], time 14 day): 205.4 mg/dL; Hb ([…], time 14 day): 14.3 g/dL; Ht ([…], time 14 day): 42.2%; Lym ([…], time 14 day): 75.8%; MCH ([…], time 14 day): 19.9 pg; MCHC ([…], time 14 day): 34%; MCV ([…], time 14 day): 58.5 fL; Mono ([…], time 14 day): 2.6%; Neu ([…], time 14 day): 20.2%; PT ([…], time 14 day): 15.4 s; Plat ([…], time 14 day): 100.5 x10_4/uL; RBC ([…], time 14 day): 722.2 x10_4/ul; Ret ([…], time 14 day): 3.8%; WBC ([…], time 14 day): 133.6 x10_2/uL; APTT ([…], time 28 day): 27.8 s; Bas ([…], time 28 day): 0%; Eos ([…], time 28 day): 0.6%; Fbg ([…], time 28 day): 200.6 mg/dL; Hb ([…], time 28 day): 15.9 g/dL; Ht ([…], time 28 day): 45.4%; Lym ([…], time 28 day): 77%; MCH ([…], time 28 day): 19.4 pg; MCHC ([…], time 28 day): 35%; MCV ([…], time 28 day): 55.4 fL; Mono ([…], time 28 day): 2.2%; Neu ([…], time 28 day): 19.6%; PT ([…], time 28 day): 16.1 s; Plat ([…], time 28 day): 95.1 x10_4/uL; RBC ([…], time 28 day): 820.2 x10_4/ul; Ret ([…], time 28 day): 1.6%; WBC ([…], time 28 day): 91.7 x10_2/uL; KIDNEY_L ([…], time 7 day): 1 g; KIDNEY_R ([…], time 7 day): 1 g; KIDNEY_TOTAL ([…], time 7 day): 2 g; KIDNEY_L ([…], time 14 day): 1.1 g; KIDNEY_R ([…], time 14 day): 1.1 g; KIDNEY_TOTAL ([…], time 14 day): 2.3 g; KIDNEY_L ([…], time 28 day): 1.1 g; KIDNEY_R ([…], time 28 day): 1.1 g; KIDNEY_TOTAL ([…], time 28 day): 2.3 g; LIVER ([…], time 7 day): 9.3 g; LIVER ([…], time 14 day): 10.5 g; LIVER ([…], time 28 day): 11.6 g; A/G ([…], time 7 day): 2; ALP ([…], time 7 day): 1237 IU/L; ALT ([…], time 7 day): 44 IU/L; AST ([…], time 7 day): 62.8 IU/L; BUN ([…], time 7 day): 16.6 mg/dL; CRE ([…], time 7 day): 0.4 mg/dL; Ca ([…], time 7 day): 10.4 mg/dL; Cl ([…], time 7 day): 105.2 meq/L; DBIL ([…], time 7 day): 0.1 mg/dL; GLC ([…], time 7 day): 178.4 mg/dL; IP ([…], time 7 day): 5.9 mg/dL; K ([…], time 7 day): 3.7 meq/L; LDH ([…], time 7 day): 214.2 IU/L; Na ([…], time 7 day): 141.8 meq/L; PL ([…], time 7 day): 118.2 mg/dL; RALB ([…], time 7 day): 3.5 g/dL; TBIL ([…], time 7 day): 0.2 mg/dL; TC ([…], time 7 day): 45.8 mg/dL; TG ([…], time 7 day): 76.4 mg/dL; TP ([…], time 7 day): 5.3 g/dL; gamma-GTP ([…], time 7 day): 1 IU/L; A/G ([…], time 14 day): 1.9; ALP ([…], time 14 day): 959.2 IU/L; ALT ([…], time 14 day): 33.2 IU/L; AST ([…], time 14 day): 58 IU/L; BUN ([…], time 14 day): 18.8 mg/dL; CRE ([…], time 14 day): 0.4 mg/dL; Ca ([…], time 14 day): 10.2 mg/dL; Cl ([…], time 14 day): 103 meq/L; DBIL ([…], time 14 day): 0.1 mg/dL; GLC ([…], time 14 day): 189.8 mg/dL; IP ([…], time 14 day): 6.9 mg/dL; K ([…], time 14 day): 3.6 meq/L; LDH ([…], time 14 day): 196 IU/L; Na ([…], time 14 day): 142 meq/L; PL ([…], time 14 day): 135.8 mg/dL; RALB ([…], time 14 day): 3.5 g/dL; TBIL ([…], time 14 day): 0.2 mg/dL; TC ([…], time 14 day): 57.4 mg/dL; TG ([…], time 14 day): 80.2 mg/dL; TP ([…], time 14 day): 5.4 g/dL; gamma-GTP ([…], time 14 day): 0.8 IU/L; A/G ([…], time 28 day): 1.9; ALP ([…], time 28 day): 934.8 IU/L; ALT ([…], time 28 day): 34 IU/L; AST ([…], time 28 day): 62.4 IU/L; BUN ([…], time 28 day): 19.2 mg/dL; CRE ([…], time 28 day): 0.5 mg/dL; Ca ([…], time 28 day): 10 mg/dL; Cl ([…], time 28 day): 105.2 meq/L; DBIL ([…], time 28 day): 0.1 mg/dL; GLC ([…], time 28 day): 177 mg/dL; IP ([…], time 28 day): 5.6 mg/dL; K ([…], time 28 day): 3.5 meq/L; LDH ([…], time 28 day): 271.6 IU/L; Na ([…], time 28 day): 143 meq/L; PL ([…], time 28 day): 126.4 mg/dL; RALB ([…], time 28 day): 3.8 g/dL; TBIL ([…], time 28 day): 0.2 mg/dL; TC ([…], time 28 day): 49.2 mg/dL; TG ([…], time 28 day): 101.4 mg/dL; TP ([…], time 28 day): 5.8 g/dL; gamma-GTP ([…], time 28 day): 1 IU/L
